According to ChEMBL document CHEMBL1135368, “The discovery of small molecule carbamates as potent dual alpha(4)beta(1)/alpha(4)beta(7) integrin antagonists” (Bioorg Med Chem Lett, 2002):
Starred links: 1 amine or outer side, 2 acyl side, 3 side chain; linkers in the order of their positions; H or OH if unused. Residues, ends and D or L forms follow the SMILES beside them. Groups on a side chain read outwards from the residue. *: point of attachment. Pyrrolidide = C1CCN(*)C1; CO = O=C([*:1])[*:2]; Ms = CS(=O)(=O)*

How the values were obtained:
Integrin alpha-4/beta-1 = Integrin alpha-4/beta-1 (Homo sapiens, UniProt P05556+P13612); assay: Alpha4-beta1 integrin binding affinity was assessed by measuring the reduction in binding of [125I]VCAM-Ig to a suspension of Jurkat cells (a human T cell line alpha-4-beta-1-beta-7); format: cell-based
Integrin alpha-4/beta-7 [1] = target: T1, Integrin alpha-4/beta-7 (Homo sapiens, UniProt P13612+P26010); assay: Inhibition of [125I]VCAM-Ig binding to Alpha4-beta7 integrin of RPMI-8866 cells at […] (inactive); format: cell-based
T1 sequence (P13612 whole entry): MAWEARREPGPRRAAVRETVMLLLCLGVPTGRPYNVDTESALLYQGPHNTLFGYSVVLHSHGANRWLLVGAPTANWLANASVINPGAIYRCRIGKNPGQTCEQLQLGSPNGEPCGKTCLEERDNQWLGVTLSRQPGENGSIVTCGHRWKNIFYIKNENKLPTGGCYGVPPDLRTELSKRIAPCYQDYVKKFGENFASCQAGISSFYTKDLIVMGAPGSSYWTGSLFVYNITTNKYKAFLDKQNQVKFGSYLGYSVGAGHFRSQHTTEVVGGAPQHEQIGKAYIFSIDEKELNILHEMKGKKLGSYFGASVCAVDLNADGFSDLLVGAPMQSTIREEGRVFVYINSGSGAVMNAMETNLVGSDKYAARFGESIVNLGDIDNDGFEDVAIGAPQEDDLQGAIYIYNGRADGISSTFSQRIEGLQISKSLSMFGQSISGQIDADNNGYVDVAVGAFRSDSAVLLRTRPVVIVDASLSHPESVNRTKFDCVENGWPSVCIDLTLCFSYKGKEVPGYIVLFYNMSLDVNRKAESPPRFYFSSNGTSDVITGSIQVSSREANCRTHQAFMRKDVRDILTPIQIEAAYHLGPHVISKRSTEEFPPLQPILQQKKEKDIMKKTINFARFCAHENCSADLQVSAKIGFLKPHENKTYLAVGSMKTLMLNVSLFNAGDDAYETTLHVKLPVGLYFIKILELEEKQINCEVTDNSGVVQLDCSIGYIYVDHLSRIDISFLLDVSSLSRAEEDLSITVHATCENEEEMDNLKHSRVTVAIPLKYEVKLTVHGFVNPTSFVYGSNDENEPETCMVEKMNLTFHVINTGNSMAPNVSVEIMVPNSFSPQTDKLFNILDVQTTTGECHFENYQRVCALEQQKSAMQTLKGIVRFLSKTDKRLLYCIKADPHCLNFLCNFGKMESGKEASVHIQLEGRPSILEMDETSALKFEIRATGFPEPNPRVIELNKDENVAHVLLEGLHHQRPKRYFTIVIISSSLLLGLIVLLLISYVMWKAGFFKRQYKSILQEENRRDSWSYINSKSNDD
T1 sequence (P26010 whole entry): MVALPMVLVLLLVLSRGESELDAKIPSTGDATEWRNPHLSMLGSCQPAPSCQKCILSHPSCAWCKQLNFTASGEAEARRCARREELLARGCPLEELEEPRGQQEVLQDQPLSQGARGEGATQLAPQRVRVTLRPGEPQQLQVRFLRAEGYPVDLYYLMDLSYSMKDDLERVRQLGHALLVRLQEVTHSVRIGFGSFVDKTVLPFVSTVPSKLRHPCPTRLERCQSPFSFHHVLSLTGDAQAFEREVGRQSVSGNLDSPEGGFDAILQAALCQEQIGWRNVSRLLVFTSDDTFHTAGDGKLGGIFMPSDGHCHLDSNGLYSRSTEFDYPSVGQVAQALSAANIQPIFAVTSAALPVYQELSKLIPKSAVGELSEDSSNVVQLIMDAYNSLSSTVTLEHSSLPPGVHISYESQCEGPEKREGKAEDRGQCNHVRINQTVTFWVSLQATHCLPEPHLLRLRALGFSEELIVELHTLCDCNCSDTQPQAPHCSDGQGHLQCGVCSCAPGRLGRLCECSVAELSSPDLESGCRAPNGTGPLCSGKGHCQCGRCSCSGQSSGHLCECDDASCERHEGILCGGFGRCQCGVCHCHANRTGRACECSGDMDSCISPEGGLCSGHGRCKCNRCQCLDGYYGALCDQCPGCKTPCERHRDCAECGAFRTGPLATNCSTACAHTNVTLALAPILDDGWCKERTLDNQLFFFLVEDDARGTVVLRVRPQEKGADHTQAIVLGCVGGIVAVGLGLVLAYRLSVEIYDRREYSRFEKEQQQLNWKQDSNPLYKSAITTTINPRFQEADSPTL

Rattus norvegicus [2] = assay: Plasma clearance value at intravenous dose of 1 mg/kg (2 mg/kg po (cassette dosing)) in Dawley rat; format: ADME, organism-based; set-up: dose 1 mg/kg; conditions: in vivo
[3] = Tested for plasma half life period in rat (0-8 hr); format: ADME, organism-based
Integrin alpha-4/beta-7 [4] = target: T1, Integrin alpha-4/beta-7; assay: Alpha4-beta7 integrin binding affinity was determined in duplicate by a radioligand binding assay using [125I]-VCAM-Ig and a suspension of RPMI-8866 cells (a human B cell line alpha-4-beta-1-beta-7+); format: cell-based
Integrin alpha-4/beta-7 [5] = target: T1, Integrin alpha-4/beta-7; assay: Inhibition of [125I]VCAM-Ig binding to Alpha4-beta7 integrin of RPMI-8866 cells; format: cell-based
Rattus norvegicus [6] = assay: Plasma clearance value at intravenous dose of 1 mg/kg (2 mg/kg po (cassette dosing) in Dawley rat; format: ADME, organism-based; set-up: dose 1 mg/kg; conditions: in vivo

Chain of Integrin alpha-4/beta-1 (P05556 whole entry, one chain of several): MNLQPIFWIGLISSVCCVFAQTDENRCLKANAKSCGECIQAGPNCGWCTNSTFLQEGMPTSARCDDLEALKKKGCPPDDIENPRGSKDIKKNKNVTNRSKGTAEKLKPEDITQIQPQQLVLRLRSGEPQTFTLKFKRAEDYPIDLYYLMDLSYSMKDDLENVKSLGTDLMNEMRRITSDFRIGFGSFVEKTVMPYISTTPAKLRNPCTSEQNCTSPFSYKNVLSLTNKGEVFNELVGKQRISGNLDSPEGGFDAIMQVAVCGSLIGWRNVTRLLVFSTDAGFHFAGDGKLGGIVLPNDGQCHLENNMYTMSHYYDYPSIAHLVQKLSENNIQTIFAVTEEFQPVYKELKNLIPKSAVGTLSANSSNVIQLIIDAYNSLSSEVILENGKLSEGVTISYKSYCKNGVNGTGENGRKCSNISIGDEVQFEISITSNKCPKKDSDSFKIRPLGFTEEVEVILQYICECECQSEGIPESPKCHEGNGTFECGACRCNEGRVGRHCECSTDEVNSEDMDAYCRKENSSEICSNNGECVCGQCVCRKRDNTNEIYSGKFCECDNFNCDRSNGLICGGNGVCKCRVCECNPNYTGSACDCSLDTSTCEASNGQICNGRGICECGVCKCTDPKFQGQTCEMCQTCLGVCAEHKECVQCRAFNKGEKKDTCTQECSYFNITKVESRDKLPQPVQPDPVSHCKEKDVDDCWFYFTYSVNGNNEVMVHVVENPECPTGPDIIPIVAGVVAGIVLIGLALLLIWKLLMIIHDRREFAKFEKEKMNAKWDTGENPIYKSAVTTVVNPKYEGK

SMILES | IC50 (Integrin alpha-4/beta-1) | IC50 (Integrin alpha-4/beta-7 [4]) | also measured
CC(C)(C)Oc1cccc(C[C@H](NC(=O)[C@]2(C)CCCN2S(=O)(=O)c2cc(Cl)cc(Cl)c2)C(=O)O)c1 | 1.79 nM |  | IC50 (Integrin alpha-4/beta-7 [1]): Not Active
CN(C(=O)Oc1ccc(C[C@H](NC(=O)[C@]2(C)CCCN2S(=O)(=O)c2cc(Cl)cc(Cl)c2)C(=O)O)cc1)c1ccccc1 | 0.25 nM | 12.3 nM | Clp (Rattus norvegicus [2]): 38 mL/min/kg; half-life [3]: 12 min
O=C(O)[C@H](Cc1ccc(O)cc1)NC(=O)[C@@H]1CCCN1S(=O)(=O)c1cc(Cl)cc(Cl)c1 | 0.34 nM |  | IC50 (Integrin alpha-4/beta-7 [5]): 820 nM
O=C(O)[C@H](Cc1ccc(OC(=O)N2CCCC2)cc1)NC(=O)[C@@H]1CCCN1S(=O)(=O)c1cc(Cl)cc(Cl)c1 | 0.13 nM | 1.92 nM | 
CC(C)(C)OC(=O)COc1cccc(C[C@H](NC(=O)[C@]2(C)CCCN2S(=O)(=O)c2cc(Cl)cc(Cl)c2)C(=O)O)c1 | 0.41 nM |  | IC50 (Integrin alpha-4/beta-7 [1]): Not Active
COCCOc1ccc(C[C@H](NC(=O)[C@@H]2CCCN2S(=O)(=O)c2cc(Cl)cc(Cl)c2)C(=O)O)cc1 | 0.28 nM | 62.5 nM | 
O=C(Oc1ccc(C[C@H](NC(=O)[C@@H]2CCCN2S(=O)(=O)c2cc(Cl)cc(Cl)c2)C(=O)O)cc1)C1CCCC1 | 0.22 nM | 58.6 nM | 
O=C(O)[C@H](Cc1ccc(OC(=O)N2CCCC2)cc1)NC(=O)[C@@H]1CCCN1S(=O)(=O)c1ccccc1 | 0.14 nM | 2.83 nM | Clp (Rattus norvegicus [2]): 176 mL/min/kg; half-life [3]: 12 min
C[C@@]1(C(=O)N[C@@H](Cc2ccc(OC(=O)N3CCCC3)cc2)C(=O)O)CCCN1S(=O)(=O)c1cc(Cl)cc(Cl)c1 | 0.17 nM | 5.26 nM | Clp (Rattus norvegicus [6]): 27 mL/min/kg
COc1ccc(C[C@H](NC(=O)[C@@H]2CCCN2S(=O)(=O)c2cc(Cl)cc(Cl)c2)C(=O)O)cc1 | 0.37 nM |  | IC50 (Integrin alpha-4/beta-7 [5]): 362 nM
CC(=O)COc1ccc(C[C@H](NC(=O)[C@@H]2CCCN2S(=O)(=O)c2cc(Cl)cc(Cl)c2)C(=O)O)cc1 | 0.18 nM | 51.4 nM | 
CCN(CC)C(=O)Oc1ccc(C[C@H](NC(=O)[C@]2(C)CCCN2S(=O)(=O)c2cc(Cl)cc(Cl)c2)C(=O)O)cc1 | 0.19 nM | 29.8 nM | 
O=C(Oc1ccc(C[C@H](NC(=O)[C@@H]2CCCN2S(=O)(=O)c2cc(Cl)cc(Cl)c2)C(=O)O)cc1)c1ccccc1 | 0.45 nM | 43.2 nM | 
CC(C)(C)Oc1ccc(C[C@H](NC(=O)[C@]2(C)CCCN2S(=O)(=O)c2cc(Cl)cc(Cl)c2)C(=O)O)cc1 | 0.27 nM |  | IC50 (Integrin alpha-4/beta-7 [5]): 647 nM
CS(=O)(=O)N1CCC[C@H]1C(=O)N[C@@H](Cc1ccc(OC(=O)N2CCCC2)cc1)C(=O)O (Ms-Pro-Tyr([CO-Pyrrolidide])-OH) | 0.5 nM | 4.4 nM | 
CC(C)N(C(=O)Oc1ccc(C[C@H](NC(=O)[C@]2(C)CCCN2S(=O)(=O)c2cc(Cl)cc(Cl)c2)C(=O)O)cc1)C(C)C | 0.22 nM | 62.4 nM | 
CCCCOc1ccc(C[C@H](NC(=O)[C@@H]2CCCN2S(=O)(=O)c2cc(Cl)cc(Cl)c2)C(=O)O)cc1 | 1.11 nM |  | IC50 (Integrin alpha-4/beta-7 [5]): 299 nM
CC(C)(C)OC(=O)COc1ccc(C[C@H](NC(=O)[C@@H]2CCCN2S(=O)(=O)c2cc(Cl)cc(Cl)c2)C(=O)O)cc1 | 0.13 nM | 211 nM | 
O=C(O)[C@H](Cc1ccc(OCc2ccccc2)cc1)NC(=O)[C@@H]1CCCN1S(=O)(=O)c1cc(Cl)cc(Cl)c1 | 1.94 nM | 849 nM | 
N#CCOc1ccc(C[C@H](NC(=O)[C@@H]2CCCN2S(=O)(=O)c2cc(Cl)cc(Cl)c2)C(=O)O)cc1 | 0.26 nM | 246 nM | 
C[C@@]1(C(=O)N[C@@H](Cc2cccc(OC(=O)N3CCCC3)c2)C(=O)O)CCCN1S(=O)(=O)c1cc(Cl)cc(Cl)c1 | 3.65 nM |  | IC50 (Integrin alpha-4/beta-7 [1]): Not Active
O=C(O)[C@H](Cc1ccc(OCc2nnn[nH]2)cc1)NC(=O)[C@@H]1CCCN1S(=O)(=O)c1cc(Cl)cc(Cl)c1 | 0.21 nM | 166 nM | 
C[C@@]1(C(=O)N[C@@H](Cc2ccc(OC(=O)N3CCOCC3)cc2)C(=O)O)CCCN1S(=O)(=O)c1cc(Cl)cc(Cl)c1 | 0.13 nM | 3.51 nM | Clp (Rattus norvegicus [2]): 50 mL/min/kg
CC(C)(C)Oc1ccc(C[C@H](NC(=O)[C@@H]2CCCN2S(=O)(=O)c2cc(Cl)cc(Cl)c2)C(=O)O)cc1 | 0.21 nM |  | IC50 (Integrin alpha-4/beta-7 [5]): 116 nM
O=C(Oc1ccc(C[C@H](NC(=O)[C@@H]2CCCN2S(=O)(=O)c2cc(Cl)cc(Cl)c2)C(=O)O)cc1)c1ccc[nH]1 | 0.26 nM | 13 nM | 
